Assay results from patent US10259809B2, “Fluorinated imidazo[4,5-C]quinoline derivatives as inhibitors of bromodomain containing proteins” (Trillium Therapeutics Inc., priority 2015, dated 2019).
Structures can show the parent of a compound that is named as a salt.

What was measured:
[1] = Liver microsome stability, mouse; assay type: in vitro ADME, mouse (CD-1; conditions: male, CD-1, mouse, pooled mouse liver microsomes, 1 μM compound, 0.5 mg/ml microsomes, 37° C., read-out: % recovery Mouse Liver Microsomes (MLM) (30 min)
Description: (§1) Working stocks were initially diluted to a concentration of 40.0 μM in 0.1 M potassium phosphate buffer before addition to the reaction vials. Pooled mouse (CD-1, male) or human (50 donors) liver microsomes were utilized at a final concentration of 0.5 mg/ml. Duplicate wells were used for each time point (0 and 30 minutes). Reactions were carried out at 37° C. in a shaker, and the final concentration of DMSO was kept constant at 0.01%. The final volume for each reaction was 100 μL, which includes the addition of an NADPH-Regeneration solution (NRS) mix. This NRS mix was comprised of glucose 6-phosphate dehydrogenase (0.4 U/mL), NADP+ (1.3 mM), MgCl2 (3.3 mM), and glucose 6-phosphate (3.3 mM) in assay mixtures. Upon completion of the 30 minute time point, reactions were terminated by the addition of 1.5-volumes (150 μL) of ice-cold, acetonitrile with 0.5% formic acid and internal standard. Samples were then centrifuged at 4,000 rpm for 10 minutes to remove debris and precipitated protein. Approximately 150 μL of supernatant was subsequently transferred to a new 96 well microplate for LC/MS analysis.
(§2) Narrow-window mass extraction LC/MS analysis was performed for all samples using a Waters Xevo quadrupole time-of-flight (QTof) mass spectrometer and an ACQUITY UPLC system, to determine relative peak areas of parent compound.

[2] = Liver microsome stability, human; assay type: in vitro ADME; conditions: pooled human liver microsomes (50 donors), 1 μM compound, 0.5 mg/ml microsomes, 37° C., read-out: % recovery Human Liver Microsomes (HLM) (30 min)
Description: as §1, §2

BRD4-FL = biological target: T1, BRD4-FL (Homo sapiens, UniProt O60885); assay: BET Bromodomain AlphaScreen assay (Example 9), BRD4-FL; assay type: binding
T1 construct: BRD4-FL: Full length BRD4
Description: (§3) The reader assay was a binding assay using the AlphaScreen technology fluorescence energy resonance transfer (FRET) assay. The biotinylated peptide binding to the reader domain of His-tagged protein is monitored by the singlet oxygen transfer from the Streptavidin-coated donor beads to the AlphaScreen Ni-chelate acceptor beads.
(§4) Reaction buffer: 50 mM Hepes, pH7.5, 100 mM NaCl, 0.05% CHAPS, 0.1% BSA, and 1% DMSO (Buffer and DMSO concentration may be different for different reader).
(§5) Biotin-peptide; sequences were different for different targets.
(§6) Reaction Procedure: • 1. Deliver 4× BRD in wells of reaction plate except No BRD control wells. Add buffer instead. • 2. Deliver compounds in 100% DMSO into the BRD mixture by Acoustic technology (Echo550; nanoliter range). Spin down and pre-incubation for 30 min. • 3. Deliver 4× Ligand. Spin and shake. • 4. Incubate for 30 min at room temperature with gentle shaking. • 5. Deliver 4× donor beads. Spin and shake. • 6. Deliver 4× acceptor beads. Spin and shake. Then gentle shaking in the dark for 60 min. • 7.

BRD2-1 = biological target: T2, BRD2-1 (Homo sapiens, UniProt P25440); assay: BET Bromodomain AlphaScreen assay (Example 9), BRD2-1; assay type: binding
T2 construct: BRD2-1: Domain 1 of BRD2
T2 sequence (P25440 74-180 limits assumed): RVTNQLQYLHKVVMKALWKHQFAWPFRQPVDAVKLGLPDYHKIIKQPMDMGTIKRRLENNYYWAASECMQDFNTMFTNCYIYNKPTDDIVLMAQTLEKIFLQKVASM
Description: as §3, §4, §5, §6

BRD3-1 = biological target: T3, BRD3-1 (Homo sapiens, UniProt Q15059); assay: BET Bromodomain AlphaScreen assay (Example 9), BRD3-1; assay type: binding
T3 construct: BRD3-1: Domain 1 of BRD3
T3 sequence (Q15059 34-140 limits assumed): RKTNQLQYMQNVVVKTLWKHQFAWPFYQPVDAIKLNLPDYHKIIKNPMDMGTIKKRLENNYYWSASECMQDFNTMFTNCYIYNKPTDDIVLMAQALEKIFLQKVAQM
Description: as §3, §4, §5, §6

[3] = biological target: T4, BRD4-FL: Full length BRD4 (Homo sapiens, UniProt O60885); assay: Bromodomain binding assay (Example 6), BRD4-FL
T4 construct: BRD4-FL: Full length BRD4
Description: (§7) The binding of the compounds of the application to bromodomains BRD2, BRD3 and BRD4 was assessed using a time resolved fluorescent resonance energy transfer binding assay (Alpha Screen Technology), that measures the binding of an acetylated histone peptide to the bromodomain protein.
(§8) The bromodomain protein, histone peptide and a variable concentration of test compound were incubated together to reach thermodynamic equilibrium.

BRD3-1: Domain 1 of BRD3 = biological target: T5, BRD3-1: Domain 1 of BRD3 (Homo sapiens, UniProt Q15059); assay: Bromodomain binding assay (Example 6), BRD3-1
T5 construct: BRD3-1: Domain 1 of BRD3
T5 sequence (Q15059 34-140 limits assumed): as above
Description: as §7, §8

[4] = tested on: MM.1S subcutaneous human multiple myeloma xenograft; assay: MM.1S subcutaneous human multiple myeloma xenograft model, efficacy; assay type: in vivo, NOD SCID mice
Description: • Species & Strain: NOD SCID mice • Age: 7-8 week • Total Number: 50 mice plus 40% spare • Sex: Female • Body Weight: 18 to 22 g Animal Maintenance
Groups and treatments started when the mean tumor volume reached about 100-150 mm^3. Based on the tumor volume, mice were randomly assigned to respective groups using a computer-generated randomization procedure.
Each mouse was inoculated subcutaneously on the right flank with MM.1S tumor cells (5×10^6) in 0.1 ml of RPMI-1640 without serum (mixed matrigel) for tumor development. The treatment started when the mean tumor size reached approximately 100-150 mm^3. Mice were then randomized into groups.
The measurement of tumor size was conducted twice weekly with a caliper and the tumor volume (mm^3) was estimated using the formula: TV=a×b^2/2, where “a” and “b” are long and short diameters of a tumor, respectively. The TVs were used for calculation of the tumor growth inhibition (TGI, an indicator of antitumor effectiveness) value using the formula: TGI=(1−T/C)×100%, where “T” and “C” is the mean relative volumes (% tumor growth) of the tumors in the treated and the control groups, respectively, on a given day after tumor inoculation. The experiment terminated when the mean tumor volume exceeded 2000 mm^3 or severe body weight loss was observed.

BRD2-1: Domain 1 of BRD2 = biological target: T6, BRD2-1: Domain 1 of BRD2 (Homo sapiens, UniProt P25440); assay: Bromodomain binding assay (Example 6), BRD2-1
T6 construct: BRD2-1: Domain 1 of BRD2
T6 sequence (P25440 74-180 limits assumed): as the sequence (P25440 74-180 limits assumed) above
Description: as §7, §8

SMILES | recovery at 30 min, 1 μM [1] [%] | recovery at 30 min, 1 μM [2] [%] | EC50 (BRD4-FL) [nM] | EC50 (BRD2-1) [nM] | EC50 (BRD3-1) [nM] | IC50 [3] [nM] | IC50 (BRD3-1: Domain 1 of BRD3) [nM] | IC50 (BRD2-1: Domain 1 of BRD2) [nM] | tumor volume ([4]; 10 mg/kg, 30 mg/kg and 60 mg/kg PO QD × 21, 21 days post administration, dose dependent) | tumor volume compared with carfilzomib (CFZ) ([4]; 30 mg/kg and 60 mg/kg PO, 21 days post administration, CFZ 5 mg/kg IV) | antitumor activity ([4]; low-dose 10 mg/kg PO)
COc1cc2c(cc1-c1c(C)noc1C)ncc1nc(C3CCOCC3)n(CCOC(F)F)c12 [2(n), 4-[1-[2-(difluoromethoxy)ethyl]-8-methoxy-2-tetrahydropyran-4-yl-imidazo[4,5-c]quinolin-7-yl]-3,5-dimethyl-isoxazole] | 74.8 | 58.1 |  |  |  |  |  |  |  |  | 
COc1cc2c(cc1-c1c(C)noc1C)ncc1nc(C3CCOCC3)n([C@H](C)COC(F)F)c12 [2(g), 4-[1-[(1R)-2-(difluoromethoxy)-1-methyl-ethyl]-8-methoxy-2-tetrahydropyran-4-yl-imidazo[4,5-c]quinolin-7-yl]-3,5-dimethyl-isoxazole] | 55.5 | 43 | 7.17 | 6.89 | 2.76 | 14 | 17 | 24 | significantly reduced the tumor volume | reduced the tumor volume to a greater extent than carfilzomib | moderate antitumor activity
COc1cc2c(cc1-c1c(C)noc1C)ncc1nc(C3CCOCC3)n([C@@H](C)COC(F)F)c12 [2(a), 4-[1-[(1S)-2-(difluoromethoxy)-1-methyl-ethyl]-8-methoxy-2-tetrahydropyran-4-yl-imidazo[4,5-c]quinolin-7-yl]-3,5-dimethyl-isoxazole] |  |  | 40.4 | 63.4 | 43.8 | 40 | 44 | 63 |  |  | 
COc1cc2c(cc1-c1c(C)noc1C)ncc1nc(C3CCCC3)n([C@H](C)COC(F)F)c12 [2(k), 4-[2-cyclopentyl-1-[(1R)-2-(difluoromethoxy)-1-methyl-ethyl]-8-methoxy-imidazo[4,5-c]quinolin-7-yl]-3,5-dimethyl-isoxazole] | 0.6 | 0.1 |  |  |  |  |  |  |  |  | 
COc1cc2c(cc1-c1c(C)noc1C)ncc1nc(C3CCC(F)(F)CC3)n([C@H](C)COC(F)F)c12 [2(h), 4-[2-(4,4-difluorocyclohexyl)-1-[(1R)-2-(difluoromethoxy)-1-methyl-ethyl]-8-methoxy-imidazo[4,5-c]quinolin-7-yl]-3,5-dimethyl-isoxazole] | 35.2 | 62.3 | 46.2 | 27.3 | 6.96 | 21 | 31 | 47 |  |  | 
COc1cc2c(cc1-c1c(C)noc1C)ncc1nc(C3CCCCC3)n([C@H](C)COC(F)F)c12 [2(j), 4-[2-cyclohexyl-1-[(1R)-2-(difluoromethoxy)-1-methyl-ethyl]-8-methoxy-imidazo[4,5-c]quinolin-7-yl]-3,5-dimethyl-isoxazole] | 7 | 1.5 |  |  |  |  |  |  |  |  | 

Continued, in another order:

recovery at 30 min, 1 μM [1] [%] | recovery at 30 min, 1 μM [2] [%] | EC50 (BRD4-FL) [nM] | EC50 (BRD2-1) [nM] | EC50 (BRD3-1) [nM] | IC50 [3] [nM] | IC50 (BRD3-1: Domain 1 of BRD3) [nM] | IC50 (BRD2-1: Domain 1 of BRD2) [nM] | SMILES | tumor volume ([4]; 10 mg/kg, 30 mg/kg and 60 mg/kg PO QD × 21, 21 days post administration, dose dependent) | tumor volume compared with carfilzomib (CFZ) ([4]; 30 mg/kg and 60 mg/kg PO, 21 days post administration, CFZ 5 mg/kg IV) | antitumor activity ([4]; low-dose 10 mg/kg PO)
 |  | 406 | 281 | 104 |  |  |  | COc1cc2c(cc1-c1c(C)noc1C)ncc1nc(C3CCOCC3)n([C@H]3CC[C@H](OC(F)F)CC3)c12 [2(r)] |  |  | 
0.5 | 13.7 |  |  |  | 32 | 18 | 32 | COc1cc2c(cc1-c1c(C)noc1C)ncc1nc(CN(C)C)n([C@H](C)COC(F)F)c12 [3(b), 1-[1-[(1R)-2-(difluoromethoxy)-1-methyl-ethyl]-7-(3,5-dimethylisoxazol-4-yl)-8-methoxy-imidazo[4,5-c]quinolin-2-yl]-N,N-dimethyl-methanamine] |  |  | 
2.6 | 0.6 |  |  |  |  |  |  | COc1cc2c(cc1-c1c(C)noc1C)ncc1nc(CN3CCC(F)(F)CC3)n([C@H](C)COC(F)F)c12 [3(f), 4-[1-[(1R)-2-(difluoromethoxy)-1-methyl-ethyl]-2-[(4,4-difluoro-1-piperidyl)methyl]-8-methoxy-imidazo[4,5-c]quinolin-7-yl]-3,5-dimethyl-isoxazole] |  |  | 
10.4 | 7.4 |  |  |  |  |  |  | COc1cc2c(cc1-c1c(C)noc1C)ncc1nc(CN3CCC(F)(F)C3)n([C@H](C)COC(F)F)c12 [3(i)] |  |  | 
 |  | 31.7 | 32.3 | 17.6 |  |  |  | COc1cc2c(cc1-c1c(C)noc1C)ncc1nc(CN(C)C)n([C@H](C)COC(F)F)c12 [3(b).HCl] |  |  | 
8 | 6.9 |  |  |  |  |  |  | COc1cc2c(cc1-c1c(C)noc1C)ncc1nc(CN3CC(F)(F)C3)n([C@H](C)COC(F)F)c12 [3(j)] |  |  | 
0.1 | 58.5 |  |  |  |  |  |  | CNCc1nc2cnc3cc(-c4c(C)noc4C)c(OC)cc3c2n1[C@H](C)COC(F)F [3(g)] |  |  | 
3.7 | 1.9 | 9.52 | 19.3 | 10 | 10 | 10 | 19 | COc1cc2c(cc1-c1c(C)noc1C)ncc1nc(CN3CCOCC3)n([C@H](C)COC(F)F)c12 [3(a), 4-[[1-[(1R)-2-(difluoromethoxy)-1-methyl-ethyl]-7-(3,5-dimethylisoxazol-4-yl)-8-methoxy-imidazo[4,5-c]quinolin-2-yl]methyl]morpholine trihydrochloride] |  |  | 
